Experimental findings from patent US12187773B2, “Modified GIP peptide analogues” (Antag Therapeutics ApS, priority 2018, dated 2025) are described below.

Where a SMILES comes first, the peptide text is derived from it.

Assay type in all cases: cell-based
In experiment [1] the target is T1, human GIP receptor (Homo sapiens, UniProt P48546).
T1 sequence (P48546 22-466): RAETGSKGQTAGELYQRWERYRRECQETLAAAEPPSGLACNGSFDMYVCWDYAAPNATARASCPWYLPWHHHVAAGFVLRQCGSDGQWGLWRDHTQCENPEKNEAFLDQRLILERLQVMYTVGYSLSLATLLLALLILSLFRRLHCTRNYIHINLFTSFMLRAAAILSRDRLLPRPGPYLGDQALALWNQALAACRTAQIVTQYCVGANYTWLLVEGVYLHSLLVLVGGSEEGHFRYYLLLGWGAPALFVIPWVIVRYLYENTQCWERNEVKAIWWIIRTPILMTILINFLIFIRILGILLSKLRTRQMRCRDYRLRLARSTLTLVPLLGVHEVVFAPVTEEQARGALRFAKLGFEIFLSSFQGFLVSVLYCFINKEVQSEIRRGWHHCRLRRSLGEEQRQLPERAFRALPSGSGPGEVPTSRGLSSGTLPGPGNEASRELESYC
In words: cAMP agonism (CisBio cAMP Dynamic 2 HTRF assay). The note with it: HEK293, read-out: cAMP agonism, % Efficacy, Table 1C, HEK-293 cells. How it is done: To test for agonistic properties at the GIP receptor, compounds were diluted and added to cells as described above and incubated for 30 min at 37° C. The resulting increase in intracellular cAMP was determined using the CisBio cAMP Dynamic 2 HTRF Assay Kit as described above.
On the technique in general: Time-resolved FRET reads energy transfer from a long-lived donor to a nearby acceptor.

In experiment [2] the target is T1, human GIP receptor. In words: cAMP antagonism (CisBio cAMP Dynamic 2 HTRF assay). On the set-up: pCMV-Script vector. The settings on record: Table 1C, CisBio, HEK-293 cells; for IC50: cAMP antagonism, nM (IC50), agonist GIP1-42 at EC50. The essentials:
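Four-parameter fits of cAMP dose-response gave pIC50. cAMP fall was quantified by HTRF competition, ratio 665/620 nm after 60 min at room temperature, against a cAMP standard curve.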

Experiment [3] concerns the target T1, human GIP receptor. In words: cAMP accumulation, antagonism (DiscoveRx HitHunter cAMP XS assay). The note with it: Table 1B, DiscoveRx; for cAMP antagonism, % inhib: COS-7 cells, % inhibition of Emax; for IC50: cAMP antagonism, nM (IC50), transiently transfected COS-7 cells. On the set-up: host or cells: COS-7 (transient, calcium phosphate; pCMV-Script vector). The essentials:
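Transiently transfected COS-7 cells expressing human GIP receptor, pretreated with 1 mM IBMX in HBS 30 min at 37 °C. Agonism: ligand 30 min at 37 °C; antagonism: 10 min antagonist preincubation, then GIP at 50-80% maximal response for 20 min. cAMP measured by HitHunter cAMP XS.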

The target of experiment [4] is T1, human GIP receptor. In words: cAMP accumulation, agonism (DiscoveRx HitHunter cAMP XS assay). Also on record: host or cells: COS-7 (transient, calcium phosphate; pCMV-Script vector). The settings on record: Table 1B; DiscoveRx; COS-7 cells. In a few lines:
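cAMP accumulation measured by HitHunter cAMP XS in COS-7 cells transiently expressing human GIP receptor, after 30 min in HBS with 1 mM IBMX at 37 °C. Antagonists preincubated 10 min before GIP giving 50-80% of maximum, then 20 min more; agonist mode used 30 min ligand exposure.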
(In general: Cyclic AMP is a second messenger, typically raised through Gs and lowered through Gi signalling.)

Broadly, the IC50 is the concentration at which inhibition is half-maximal. With `CC[C@H](C)[C@H](NC(=O)[C@H](CO)NC(=O)[C@H](Cc1ccc(O)cc1)NC(=O)[C@H](CC(=O)O)NC(=O)[C@H](CO)NC(=O)[C@@H](NC(=O)[C@H](Cc1ccccc1)NC(=O)[C@@H](NC(=O)CNC(=O)[C@@H](N)CO)[C@@H](C)O)[C@@H](C)CC)C(=O)N[C@@H](C)C(=O)N[C@@H](CCSC)C(=O)N[C@@H](CC(=O)O)C(=O)N[C@@H](CCCNC(=N)N)C(=O)N[C@H](C(=O)N[C@@H](CCCCNC(=O)CC[C@H](NC(=O)CCCCCCCCCCCCCCC(=O)O)C(=O)O)C(=O)N[C@@H](CCC(N)=O)C(=O)N[C@@H](CCC(N)=O)C(=O)N[C@@H](CC(=O)O)C(=O)N[C@@H](Cc1ccccc1)C(=O)N[C@H](C(=O)N[C@@H](CC(N)=O)C(=O)N[C@@H](Cc1c[nH]c2ccccc12)C(=O)N[C@@H](CC(C)C)C(=O)N[C@@H](CC(C)C)C(=O)N[C@@H](C)C(=O)N[C@@H](CCC(N)=O)C(=O)N[C@@H](CCCNC(=N)N)C(N)=O)C(C)C)[C@@H](C)CC` [AT504] (HELM PEPTIDE1{S.G.T.F.I.S.D.Y.S.I.A.M.D.R.I.K.Q.Q.D.F.V.N.W.L.L.A.Q.R.[am]}|PEPTIDE2{[O=C(O)CCCCCCCCCCCCCCC(=O)[*:2]].[gGlu]}$PEPTIDE1,PEPTIDE2,16:R3-2:R2$$$V2.0; N-terminus assumed), the Emax on human GIP receptor [1] came out at 0%. Besides, the figures for the “cAMP antagonism, % inhib” value on human GIP receptor [2] and at human GIP receptor [3] were 85% and 90%, respectively. The IC50 on human GIP receptor [2] was 39.8 nM; on human GIP receptor [3], 21 nM. The “cAMP agonism, Emax” value on human GIP receptor [4] is “No Agonism”.

For `CC[C@H](C)[C@H](NC(=O)[C@H](CO)NC(=O)[C@H](Cc1ccc(O)cc1)NC(=O)[C@H](CC(=O)O)NC(=O)[C@H](CO)NC(=O)[C@@H](NC(=O)[C@H](Cc1ccccc1)NC(=O)[C@@H](NC(=O)CNC(=O)[C@@H]1CCCN1)[C@@H](C)O)[C@@H](C)CC)C(=O)N[C@@H](C)C(=O)N[C@@H](CCSC)C(=O)N[C@@H](CC(=O)O)C(=O)N[C@@H](CCCNC(=N)N)C(=O)N[C@H](C(=O)N[C@@H](CCCCNC(=O)CC[C@H](NC(=O)CCCCCCCCCCCCCCC(=O)O)C(=O)O)C(=O)N[C@@H](CCC(N)=O)C(=O)N[C@@H](CCC(N)=O)C(=O)N[C@@H](CC(=O)O)C(=O)N[C@@H](Cc1ccccc1)C(=O)N[C@H](C(=O)N[C@@H](CC(N)=O)C(=O)N[C@@H](Cc1c[nH]c2ccccc12)C(=O)N[C@@H](CC(C)C)C(=O)N[C@@H](CC(C)C)C(=O)N[C@@H](C)C(=O)N[C@@H](CCC(N)=O)C(=O)N[C@@H](CCCNC(=N)N)C(N)=O)C(C)C)[C@@H](C)CC` [AT506] (HELM PEPTIDE1{P.G.T.F.I.S.D.Y.S.I.A.M.D.R.I.K.Q.Q.D.F.V.N.W.L.L.A.Q.R.[am]}|PEPTIDE2{[O=C(O)CCCCCCCCCCCCCCC(=O)[*:2]].[gGlu]}$PEPTIDE1,PEPTIDE2,16:R3-2:R2$$$V2.0; N-terminus assumed), the Emax at human GIP receptor [1] is 5%. Further, the “cAMP antagonism, % inhib” value on human GIP receptor [2] amounted to 78%. Moreover, at human GIP receptor [3], the “cAMP antagonism, % inhib” value amounted to 90% and the half-inhibitory concentration (IC50) was found to be 91 nM. Further, at human GIP receptor [4], the “cAMP agonism, Emax” value is “No Agonism”.

`CC[C@H](C)[C@H](NC(=O)[C@H](CO)NC(=O)[C@H](Cc1ccc(O)cc1)NC(=O)[C@H](CC(=O)O)NC(=O)[C@H](CO)NC(=O)[C@@H](NC(=O)[C@H](Cc1ccccc1)NC(=O)[C@@H](NC(=O)CNC(=O)CN)[C@@H](C)O)[C@@H](C)CC)C(=O)N[C@@H](C)C(=O)N[C@@H](CCSC)C(=O)N[C@@H](CC(=O)O)C(=O)N[C@@H](CCCNC(=N)N)C(=O)N[C@H](C(=O)N[C@@H](CCCCNC(=O)COCCOCCNC(=O)CC[C@H](NC(=O)CCCCCCCCCCCCCCC(=O)O)C(=O)O)C(=O)N[C@@H](CCC(N)=O)C(=O)N[C@@H](CCC(N)=O)C(=O)N[C@@H](CC(=O)O)C(=O)N[C@@H](Cc1ccccc1)C(=O)N[C@H](C(=O)N[C@@H](CC(N)=O)C(=O)N[C@@H](Cc1c[nH]c2ccccc12)C(=O)N[C@@H](CC(C)C)C(=O)N[C@@H](CC(C)C)C(=O)N[C@@H](C)C(=O)N[C@@H](CCC(N)=O)C(=O)N[C@@H](CCCNC(=N)N)C(N)=O)C(C)C)[C@@H](C)CC` [AT508] (HELM PEPTIDE1{G.G.T.F.I.S.D.Y.S.I.A.M.D.R.I.K.Q.Q.D.F.V.N.W.L.L.A.Q.R.[am]}|PEPTIDE2{[O=C(O)CCCCCCCCCCCCCCC(=O)[*:2]].[gGlu].[O=C(COCCOCCN[*:1])[*:2]]}$PEPTIDE1,PEPTIDE2,16:R3-3:R2$$$V2.0; N-terminus assumed): the Emax at human GIP receptor [1] worked out at 0%. Further, on human GIP receptor [2], the “cAMP antagonism, % inhib” value is on record as 89%. On human GIP receptor [3], the “cAMP antagonism, % inhib” value is listed as 100% and the IC50 was 23 nM. Further, the “cAMP agonism, Emax” value on human GIP receptor [4] is on record as “No Agonism”.

Regarding `CC[C@H](C)[C@H](NC(=O)[C@H](CO)NC(=O)[C@H](Cc1ccc(O)cc1)NC(=O)[C@H](CC(=O)O)NC(=O)[C@H](CO)NC(=O)[C@@H](NC(=O)[C@H](Cc1ccccc1)NC(=O)[C@@H](NC(=O)CNC(=O)[C@@H](N)CO)[C@@H](C)O)[C@@H](C)CC)C(=O)N[C@@H](C)C(=O)N[C@@H](CCSC)C(=O)N[C@@H](CC(=O)O)C(=O)N[C@@H](CCCNC(=N)N)C(=O)N[C@H](C(=O)N[C@@H](CCCCNC(=O)COCCOCCNC(=O)CC[C@H](NC(=O)CCCCCCCCCCCCCCC(=O)O)C(=O)O)C(=O)N[C@@H](CCC(N)=O)C(=O)N[C@@H](CCC(N)=O)C(=O)N[C@@H](CC(=O)O)C(=O)N[C@@H](Cc1ccccc1)C(=O)N[C@H](C(=O)N[C@@H](CC(N)=O)C(=O)N[C@@H](Cc1c[nH]c2ccccc12)C(=O)N[C@@H](CC(C)C)C(=O)N[C@@H](CC(C)C)C(=O)N[C@@H](C)C(=O)N[C@@H](CCC(N)=O)C(=O)N[C@@H](CCCNC(=N)N)C(N)=O)C(C)C)[C@@H](C)CC` [AT510] (HELM PEPTIDE1{S.G.T.F.I.S.D.Y.S.I.A.M.D.R.I.K.Q.Q.D.F.V.N.W.L.L.A.Q.R.[am]}|PEPTIDE2{[O=C(O)CCCCCCCCCCCCCCC(=O)[*:2]].[gGlu].[O=C(COCCOCCN[*:1])[*:2]]}$PEPTIDE1,PEPTIDE2,16:R3-3:R2$$$V2.0; N-terminus assumed), the Emax at human GIP receptor [1] stood at 2%. The “cAMP antagonism, % inhib” value at human GIP receptor [2] was 87%; at human GIP receptor [3] it was 100%. The same compound registered an IC50 at human GIP receptor [2] of 58.4 nM. Moreover, on human GIP receptor [4], the “cAMP agonism, Emax” value is on record as “No Agonism”.

In the case of `CC[C@H](C)[C@H](NC(=O)[C@H](CO)NC(=O)[C@H](Cc1ccc(O)cc1)NC(=O)[C@H](CC(=O)O)NC(=O)[C@H](CO)NC(=O)[C@@H](NC(=O)[C@H](Cc1ccccc1)NC(=O)[C@@H](NC(=O)CNC(=O)[C@@H]1CCCN1)[C@@H](C)O)[C@@H](C)CC)C(=O)N[C@@H](C)C(=O)N[C@@H](CCSC)C(=O)N[C@@H](CC(=O)O)C(=O)N[C@@H](CCCNC(=N)N)C(=O)N[C@H](C(=O)N[C@@H](CCCCNC(=O)COCCOCCNC(=O)CC[C@H](NC(=O)CCCCCCCCCCCCCCC(=O)O)C(=O)O)C(=O)N[C@@H](CCC(N)=O)C(=O)N[C@@H](CCC(N)=O)C(=O)N[C@@H](CC(=O)O)C(=O)N[C@@H](Cc1ccccc1)C(=O)N[C@H](C(=O)N[C@@H](CC(N)=O)C(=O)N[C@@H](Cc1c[nH]c2ccccc12)C(=O)N[C@@H](CC(C)C)C(=O)N[C@@H](CC(C)C)C(=O)N[C@@H](C)C(=O)N[C@@H](CCC(N)=O)C(=O)N[C@@H](CCCNC(=N)N)C(N)=O)C(C)C)[C@@H](C)CC` [AT512] (HELM PEPTIDE1{P.G.T.F.I.S.D.Y.S.I.A.M.D.R.I.K.Q.Q.D.F.V.N.W.L.L.A.Q.R.[am]}|PEPTIDE2{[O=C(O)CCCCCCCCCCCCCCC(=O)[*:2]].[gGlu].[O=C(COCCOCCN[*:1])[*:2]]}$PEPTIDE1,PEPTIDE2,16:R3-3:R2$$$V2.0; N-terminus assumed), the Emax on human GIP receptor [1] was determined as 0%. Also, on human GIP receptor [2], the “cAMP antagonism, % inhib” value was 73% and the IC50 was determined as 79.4 nM. Further, the “cAMP antagonism, % inhib” value on human GIP receptor [3] was determined as 80%. Further, the “cAMP agonism, Emax” value on human GIP receptor [4] is “No Agonism”.
